In patent US20170291905A1, “ARGININE […] INHIBITORS AND USES THEREOF” (Epizyme, Inc., priority 2014, published 2017):
Counter-ions that a name gives are not always drawn.

Biological target: T1, full-length human PRMT1 isoform 1 (GST-tagged) (Homo sapiens, UniProt Q99873)
T1 construct: GST-tagged PRMT1 was eluted with 50 mM Tris, 2 mM glutathione, pH 7.8, dialysed in buffer A and concentrated; made in house; host or cells: High Five insect cells (baculovirus)
Test: PRMT1 biochemical assay (3H-SAM Flashplate, histone H4 36-50 peptide)
Details: 0.5 nM PRMT1, 30 min preincubation, 20 nM peptide
From the text: S-adenosylmethionine (SAM), S-adenosylhomocysteine (SAH), bicine, Tween20, dimethylsulfoxide (DMSO), bovine skin gelatin (BSG), and Tris(2-carboxyethyl)phosphine hydrochloride solution (TCEP) were purchased from Sigma-Aldrich at the highest level of purity possible. ^3H-SAM was purchase from American Radiolabeled Chemicals with a specific activity of 80 Ci/mmol. 384-well streptavidin Flashplates were purchased from PerkinElmer.
Peptide representative of human histone H4 residues 36-50 was synthesized with an N-terminal linker-affinity tag motif and a C-terminal amide cap by 21st Century Biochemicals. The peptide was purified by high-performance liquid chromatography (HPLC) to greater than 95% purity and confirmed by liquid chromatography mass spectrometry (LC-MS). The sequence was Biot-Ahx-[…]-amide (SEQ ID NO.:1).
Full-length human PRMT1 isoform 1 (NM_001536.5) transcript clone was amplified from an HEK 293 cDNA library, incorporating flanking 5′ sequence encoding a FLAG tag ([…]) (SEQ ID NO.:2) fused directly to Met 1 of PRMT1. The amplified gene was subcloned into pFastBacI (Life Technologies) modified to encode an N-terminal GST tag and a TEV cleavage sequence
Recombinant baculovirus were generated according to Bac-to-Bac kit instructions (Life Technologies). Protein over-expression was accomplished by infecting exponentially growing High Five insect cell culture at 1.5×10^6 cell/ml with 1:100 ratio of virus. Infections were carried out at 27° C. for 48 hours, harvested by centrifugation, and stored at −80° C. for purification.
GST-tagged PRMT1 was eluted with 50 mM Tris, 2 mM glutathione, pH 7.8, dialysed in buffer A and concentrated to 1 mg/mL. The purity of recovered protein was 73%. Reference: Wasilko, D. J. and S. E. Lee: “TIPS: titerless infected-cells preservation and scale-up” Bioprocess J., 5 (2006), pp. 29-32.
General Procedure for PRMT1 Enzyme Assays on Peptide Substrates.
The assays were all performed in a buffer consisting of 20 mM Bicine (pH=7.6), 1 mM TCEP, 0.005% BSG, and 0.002% Tween 20, prepared on the day of use. Compounds in 100% DMSO (1 ul) were spotted into a polypropylene 384-well V-bottom plates (Greiner) using a Platemate Plus outfitted with a 384-channel head (Thermo Scientific). DMSO (1 ul) was added to Columns 11, 12, 23, 24, rows A-H for the maximum signal control and 1 ul of SAH, a known product and inhibitor of PRMT1, was added to columns 11, 12, 23, 24, rows I-P for the minimum signal control. A cocktail (40 ul) containing the PRMT1 enzyme was added by Multidrop Combi (Thermo-Fisher). The compounds were allowed to incubate with PRMT1 for 30 min at room temperature, then a cocktail (10 ul) containing SAM and peptide was added to initiate the reaction (final volume=51 ul). The final concentrations of the components were as follows: PRMT1 was 0.5 nM, ^3H-SAM was 200 nM, non-radiolabeled SAM was 1.5 uM, peptide was 20 nM, SAH in the minimum signal control wells was 1 mM, and the DMSO concentration was 2%. The assays were stopped by the addition of non-radiolabeled SAM (10 ul) to a final concentration of 300 uM, which dilutes the ^3H-SAM to a level where its incorporation into the peptide substrate is no longer detectable. 50 ul of the reaction in the 384-well polypropylene plate was then transferred to a 384-well Flashplate and the biotinylated peptides were allowed to bind to the streptavidin surface for at least 1 hour before being washed once with 0.1% Tween20 in a Biotek ELx405 plate washer. The plates were then read in a PerkinElmer TopCount plate reader to measure the quantity of ^3H-labeled peptide bound to the Flashplate surface, measured as disintegrations per minute (dpm) or alternatively, referred to as counts per minute (cpm).
Where dpm=disintegrations per minute, cmpd=signal in assay well, and min and max are the respective minimum and maximum signal controls. […]

T1 sequence (Q99873 with tags, fused parts or gaps): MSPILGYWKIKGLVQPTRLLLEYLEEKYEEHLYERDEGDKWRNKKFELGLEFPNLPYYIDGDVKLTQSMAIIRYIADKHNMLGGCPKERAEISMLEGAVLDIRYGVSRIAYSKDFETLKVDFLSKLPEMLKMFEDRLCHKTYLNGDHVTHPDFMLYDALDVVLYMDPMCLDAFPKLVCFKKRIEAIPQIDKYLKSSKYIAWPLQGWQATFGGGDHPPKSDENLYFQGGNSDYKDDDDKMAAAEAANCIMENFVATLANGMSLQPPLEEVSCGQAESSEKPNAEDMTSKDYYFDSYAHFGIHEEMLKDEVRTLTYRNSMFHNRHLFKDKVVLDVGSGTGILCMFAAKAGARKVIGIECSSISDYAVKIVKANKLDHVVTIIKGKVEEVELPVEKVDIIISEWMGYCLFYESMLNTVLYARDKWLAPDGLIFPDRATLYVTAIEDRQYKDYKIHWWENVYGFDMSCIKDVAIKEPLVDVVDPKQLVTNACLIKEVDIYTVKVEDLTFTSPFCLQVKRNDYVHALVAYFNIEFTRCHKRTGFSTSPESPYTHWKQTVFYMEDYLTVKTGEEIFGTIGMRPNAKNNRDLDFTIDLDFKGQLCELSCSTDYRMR

Row | IC50 [nM] | SMILES
1 | 14.8 | CNCCN(C)Cc1ncsc1[C@H]1CC[C@@]2(CC1)CC(C)(C)CO2 [compound 83]
2 | 13.2 | CNCCNCc1c[nH]nc1[C@H]1CC[C@@]2(CC1)CC(C)(C)CO2 [compound 28, N1-((3-((5s,8s)-3,3-dimethyl-1-oxaspiro[4.5]decan-8-yl)-1H-pyrazol-4-yl)methyl)-N2-methylethane-1,2-diamine]
3 | 11.4 | Cc1[nH]nc(C2CCC3(CC2)CC(C)(C)CO3)c1CN(C)CCN (stereo not drawn) [compound 59]
4 | 14.3 | CNCCN(C)Cc1c[nH]nc1[C@H]1CC[C@@]2(CC1)COC(C)(C)C2 [compound 126, N1-((3-((5r,8r)-3,3-dimethyl-2-oxaspiro[4.5]decan-8-yl)-1H-pyrazol-4-yl)methyl)-N1,N2-dimethylethane-1,2-diamine]
5 | 21 | CNCCN(C)Cc1c[nH]nc1C1CCC(C)(C)[C@H](COCCCOC)C1 (stereo partly drawn) [compound 30, {2-[({3-[(3R)-3-[(3-methoxypropoxy)methyl]-4,4-dimethylcyclohexyl]-1H-pyrazol-4-yl}methyl)(methyl)amino]ethyl}(methyl)amine]
6 | 11.7 | CNCCN(C)Cc1c[nH]nc1[C@H]1CC[C@@]2(CCCOC2)CC1 [compound 5, N1-((3-((6r,9r)-2-oxaspiro[5.5]undecan-9-yl)-1H-pyrazol-4-yl)methyl)-N1,N2-dimethylethane-1,2-diamine]
7 | 1020 | CNCCN(C)Cc1nccn1[C@H]1CC[C@]2(CC1)CC(C)(C)CO2 [compound 91]
8 | 14.3 | CNCCN(C)Cc1c[nH]nc1[C@@H]1CC[C@@H](OCCCOC)C2(CCCC2)C1 (racemic) [compound 26, N1-((3-((7R,10R)-10-(3-methoxypropoxy)spiro[4.5]decan-7-yl)-1H-pyrazol-4-yl)methyl)-N1,N2-dimethylethane-1,2-diamine]
9 | > 10000 | CNCCN(C)Cc1c[nH]nc1C1C[C@H](C(=O)NCCOC)C(C)(C)[C@H](C(=O)NCCOC)C1 (stereo partly drawn) [compound 13]
10 | 4330 | CNCCN(C)Cc1nncn1[C@H]1CC[C@@]2(CC1)CC(C)(C)CO2 [compound 68]
11 | 35.6 | CNCCN(C)Cc1nc(C)sc1[C@H]1CC[C@]2(CC1)CC(C)(C)CO2 [compound 99]
12 | 10.7 | CNCCN(C)Cc1c[nH]nc1C1CCC2(CC1)CC(C)(C)OC2=O (stereo not drawn) [compound 125]
13 | 50.8 | CNCCN(C)Cc1c[nH]nc1[C@H]1CC[C@@H](COCC(F)(F)F)CC1 [compound 23, N1,N2-dimethyl-N1-((3-((1s,4s)-4-((2,2,2-trifluoroethoxy)methyl)cyclohexyl)-1H-pyrazol-4-yl)methyl)ethane-1,2-diamine]
14 | 5100 | CNCCN(C)Cc1nnc(C)n1[C@H]1CC[C@@]2(CC1)CC(C)(C)CO2 [compound 71]
15 | 4.18 | CNCCN(C)Cc1scnc1[C@H]1CC[C@@]2(CC1)CC(C)(C)CO2 [compound 62]
16 | 25 | CCOC[C@@H]1CC(c2n[nH]cc2CN(C)CCNC)CCC1(C)C (stereo partly drawn) [compound 31, {2-[({3-[(3R)-3-(ethoxymethyl)-4,4-dimethylcyclohexyl]-1H-pyrazol-4-yl}methyl)(methyl)amino]ethyl}(methyl)amine]
17 | 21.2 | CN(CCN)Cc1nn(C)cc1[C@H]1CC[C@]2(CC1)CC(C)(C)CO2 [compound 102]

Row | IC50 [nM] | SMILES
18 | 702 | CNCCN(C)Cc1cn(C)nc1C1CCC(C)(C)[C@@H](C(=O)NCC(C)C)C1 (stereo partly drawn) [compound 25]
19 | 38 | CCOCC1(COCC)CCC(c2n[nH]cc2CN(C)CCN(C)C)CC1 [compound 121]
20 | 25.8 | CNCCN(C)Cc1c(C)[nH]nc1[C@H]1CC[C@@]2(CC1)CC(C)(C)CO2 [compound 57]
21 | 6.55 | CNCCN(C)Cc1c[nH]nc1[C@H]1CC[C@@]2(CCN(CCC(C)C)C2=O)CC1 [compound 11, (5r,8r)-2-isopentyl-8-(4-((methyl(2-(methylamino)ethyl)amino)methyl)-1H-pyrazol-3-yl)-2-azaspiro[4.5]decan-1-one]
22 | 13.2 | CCC1(CC)C[C@]2(CC[C@H](c3n[nH]cc3CN(C)CCNC)CC2)OC1=O [compound 33, (5s,8s)-3,3-diethyl-8-(4-((methyl(2-(methylamino)ethyl)amino)methyl)-1H-pyrazol-3-yl)-1-oxaspiro[4.5]decan-2-one]
23 | 22.8 | CNCCN(C)Cc1nn(C)cc1[C@H]1CC[C@@]2(CC1)CC(C)(C)CO2 [compound 81]
24 | 121 | CNCCN(C)Cc1c(C)noc1[C@H]1CC[C@]2(CC1)CC(C)(C)CO2 [compound 114]
25 | > 10000 | CNCCN(C)Cc1cnnn1[C@H]1CC[C@@]2(CC1)CC(C)(C)CO2 [compound 65]
26 | 15.2 | CCC1(CC)C[C@]2(CC[C@@H](c3n[nH]cc3CN(C)CCNC)CC2)OC1=O [compound 34, (5r,8r)-3,3-diethyl-8-(4-((methyl(2-(methylamino)ethyl)amino)methyl)-1H-pyrazol-3-yl)-1-oxaspiro[4.5]decan-2-one]
27 | 16 | Cc1[nH]nc([C@H]2CC[C@]3(CC2)CC(C)(C)CO3)c1CN(C)CCN [compound 52, N1-((3-((5r,8r)-3,3-dimethyl-1-oxaspiro[4.5]decan-8-yl)-5-methyl-1H-pyrazol-4-yl)methyl)-N1-methylethane-1,2-diamine]
28 | 7.33 | CNCCN(C)Cc1c[nH]nc1[C@H]1CC[C@]2(CCCCO2)CC1 [compound 127, methyl([2-[methyl([3-[(6s,9r)-1-oxaspiro[5.5]undecan-9-yl]-1H-pyrazol-4-yl]methyl)amino]ethyl])amine bistrifluoroacetic acid salt]
29 | 5.83 | CN(CCN)Cc1nn(C)cc1[C@H]1CC[C@@]2(CC1)CC(C)(C)CO2 [compound 80]
30 | > 10000 | CNCCN(C)Cc1nnc(C)n1[C@H]1CC[C@]2(CC1)CC(C)(C)CO2 [compound 93]
31 | 318 | CNCCN(C)Cc1c(Cl)ncn1[C@H]1CC[C@]2(CC1)CC(C)(C)CO2 [compound 97]
32 | 5.6 | CNCCN(C)Cc1c[nH]nc1C1=CCC(CF)(CF)CC1 [compound 15, N-((3-(4,4-bis(fluoromethyl)cyclohex-1-en-1-yl)-1H-pyrazol-4-yl)methyl)-N1,N2-dimethylethane-1,2-diamine]
33 | 11.2 | CNCCN(C)Cc1c[nH]nc1C1=CCC(COCC(F)(F)F)CC1 (stereo not drawn) [compound 16, N1,N2-dimethyl-N1-((3-(4-((2,2,2-trifluoroethoxy)methyl)cyclohex-1-en-1-yl)-1H-pyrazol-4-yl)methyl)ethane-1,2-diamine]
34 | 22.9 | CNCCN(C)Cc1nc(C)sc1[C@H]1CC[C@@]2(CC1)CC(C)(C)CO2 [compound 77]

Row | SMILES | IC50 [nM]
35 | CNCCN(C)Cc1n[nH]cc1[C@H]1CC[C@@]2(CC1)CC(C)(C)CO2 [compound 115] | 11.5
36 | CCN(C)C(=O)C1CC(c2n[nH]cc2CN(C)CCNC)CC(C(=O)NCCC(C)C)C1(C)C (stereo not drawn) [compound 14, N1-ethyl-N3-isopentyl-N1,2,2-trimethyl-5-(4-((methyl(2-(methylamino)ethyl)amino)methyl)-1H-pyrazol-3-yl)cyclohexane-1,3-dicarboxamide] | > 10000
37 | CNCCN(C)Cc1n[nH]cc1[C@H]1CC[C@]2(CC1)CC(C)(C)CO2 [compound 116] | 22.9
38 | CCOCC1(COCC)CC=C(c2n[nH]cc2CN(C)CCNC)CC1 [compound 60] | 14.9
39 | CNCCN(C)Cc1c[nH]nc1C1CCC(OCCCOC)C2(CCCC2)C1 (mixture of isomers) [compound 19, N1-((3-(10-(3-methoxypropoxy)spiro[4.5]decan-7-yl)-1H-pyrazol-4-yl)methyl)-N1,N2-dimethylethane-1,2-diamine dihydrochloride] | 11.1
